Source: ChEMBL document CHEMBL4376829, “Discovery and biological evaluation of vinylsulfonamide derivatives as highly potent, covalent TEAD autopalmitoylation inhibitors” (Eur J Med Chem, 2019)
Active and inactive are the calls of the source. The calls are words filed in the database; no cut-off is given here.

Tests used:
[1] = target: Activated CDC42 kinase 1 (Homo sapiens) (UniProt Q07912); experiment: Inhibition of human ACK1 (1 to 389 residues) at 10 uM using EFPIYDFLPAKKK as substrate after 40 mins in presence of [gamma33P]ATP by scintillation counting method relative to control
[2] = target: Insulin receptor (Homo sapiens) (UniProt P06213); experiment: Inhibition of recombinant human IR activated (1005 to 1310 residues) at 10 uM using KKSRGDYMTMQIG as substrate after 40 mins in presence of [gamma33P]ATP by scintillation counting method relative to control
Insulin receptor (Homo sapiens), sequence (P06213 28-758 limits assumed): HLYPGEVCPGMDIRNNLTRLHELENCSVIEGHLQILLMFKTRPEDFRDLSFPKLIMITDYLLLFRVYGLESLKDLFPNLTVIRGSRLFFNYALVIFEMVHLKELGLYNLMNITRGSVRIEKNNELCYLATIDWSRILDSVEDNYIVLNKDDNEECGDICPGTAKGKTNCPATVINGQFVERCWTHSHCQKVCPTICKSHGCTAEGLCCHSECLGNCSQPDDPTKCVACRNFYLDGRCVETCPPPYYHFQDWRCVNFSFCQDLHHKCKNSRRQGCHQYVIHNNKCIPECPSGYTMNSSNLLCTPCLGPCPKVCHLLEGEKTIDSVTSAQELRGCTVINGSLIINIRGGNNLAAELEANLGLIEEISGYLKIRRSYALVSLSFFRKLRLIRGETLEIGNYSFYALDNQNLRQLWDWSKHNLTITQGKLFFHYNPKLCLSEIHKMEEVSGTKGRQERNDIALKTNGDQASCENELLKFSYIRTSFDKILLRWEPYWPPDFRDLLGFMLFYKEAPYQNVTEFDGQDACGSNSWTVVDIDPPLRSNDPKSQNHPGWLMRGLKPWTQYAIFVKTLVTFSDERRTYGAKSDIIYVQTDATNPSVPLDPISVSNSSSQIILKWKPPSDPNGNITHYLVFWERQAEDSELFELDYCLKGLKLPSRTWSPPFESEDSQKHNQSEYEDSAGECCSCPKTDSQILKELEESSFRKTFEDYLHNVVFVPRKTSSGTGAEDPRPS
Insulin receptor (Homo sapiens), sequence (P06213 763-1382 limits assumed): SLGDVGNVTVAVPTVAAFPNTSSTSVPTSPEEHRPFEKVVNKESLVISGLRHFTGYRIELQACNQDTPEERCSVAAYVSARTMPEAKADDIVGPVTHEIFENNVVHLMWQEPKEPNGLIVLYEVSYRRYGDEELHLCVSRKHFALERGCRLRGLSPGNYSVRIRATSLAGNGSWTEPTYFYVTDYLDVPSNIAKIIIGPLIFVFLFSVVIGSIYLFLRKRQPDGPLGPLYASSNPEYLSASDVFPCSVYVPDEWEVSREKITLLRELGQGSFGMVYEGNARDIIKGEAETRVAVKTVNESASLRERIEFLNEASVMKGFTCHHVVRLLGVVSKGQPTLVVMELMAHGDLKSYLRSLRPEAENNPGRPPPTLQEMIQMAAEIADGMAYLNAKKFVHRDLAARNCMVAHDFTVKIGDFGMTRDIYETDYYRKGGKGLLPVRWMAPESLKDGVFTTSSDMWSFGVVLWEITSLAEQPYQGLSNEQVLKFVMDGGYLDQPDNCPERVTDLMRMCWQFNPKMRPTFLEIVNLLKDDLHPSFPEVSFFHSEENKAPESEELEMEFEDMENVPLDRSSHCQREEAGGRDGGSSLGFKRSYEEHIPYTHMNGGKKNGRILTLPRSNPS

[3] = target: Cyclin-dependent kinase 14/Cyclin-Y (Homo sapiens) (UniProt O94921+Q8ND76); experiment: Inhibition of human CDK14/cyclinY at 10 uM by radiometric assay relative to control; type: protein-complex assay
[4] = target: Activin receptor type-2A (Homo sapiens) (UniProt P27037); experiment: Inhibition of recombinant human ACTR2 (162 to end residues) at 10 uM using casein as substrate after 120 mins in presence of [gamma33P]ATP by scintillation counting method relative to control
Activin receptor type-2A (Homo sapiens), sequence (P27037 whole entry, the tested form may be a part): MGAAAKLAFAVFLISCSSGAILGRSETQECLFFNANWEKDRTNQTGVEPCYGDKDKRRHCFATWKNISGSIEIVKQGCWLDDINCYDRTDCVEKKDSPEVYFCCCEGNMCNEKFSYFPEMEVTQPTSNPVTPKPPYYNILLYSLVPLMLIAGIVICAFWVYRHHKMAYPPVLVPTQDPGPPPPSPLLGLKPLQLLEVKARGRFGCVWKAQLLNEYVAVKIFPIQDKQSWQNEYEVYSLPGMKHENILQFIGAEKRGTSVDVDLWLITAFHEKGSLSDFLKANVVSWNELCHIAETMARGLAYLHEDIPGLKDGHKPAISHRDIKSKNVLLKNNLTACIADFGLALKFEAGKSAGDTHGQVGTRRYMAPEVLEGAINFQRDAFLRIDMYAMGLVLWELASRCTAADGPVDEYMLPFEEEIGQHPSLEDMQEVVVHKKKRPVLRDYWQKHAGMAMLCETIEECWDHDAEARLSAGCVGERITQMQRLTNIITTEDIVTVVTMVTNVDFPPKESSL

[5] = target: Insulin receptor-related protein (Homo sapiens) (UniProt P14616); experiment: Inhibition of recombinant human IRR (943 to 1266 residues) at 10 uM using myelin basic protein as substrate measured after 40 mins in presence of [gamma33P]ATP by scintillation counting method relative to control
[6] = target: Transcriptional enhancer factor TEF-3 (Homo sapiens, UniProt Q15561); experiment: Binding affinity to N-terminal His6 tagged human TEAD4-YBD (217 to 434 residues) expressed in Escherichia coli C43 (DE3) cells assessed as covalent modification at Cys367 residue by HPLC-MS/MS analysis
[7] = target: Receptor-type tyrosine-protein kinase FLT3 (Homo sapiens) (UniProt P36888); experiment: Inhibition of recombinant human Flt3 (564 to end residues) at 10 uM using EAIYAAPFAKKK as substrate after 40 mins in presence of [gamma33P]ATP by scintillation counting method relative to control
[8] = target: Histone-lysine N-methyltransferase SETD7 (Homo sapiens) (UniProt Q8WTS6); experiment: Inhibition of human SET7 at 10 uM relative to control
Histone-lysine N-methyltransferase SETD7 (Homo sapiens), sequence (Q8WTS6 whole entry): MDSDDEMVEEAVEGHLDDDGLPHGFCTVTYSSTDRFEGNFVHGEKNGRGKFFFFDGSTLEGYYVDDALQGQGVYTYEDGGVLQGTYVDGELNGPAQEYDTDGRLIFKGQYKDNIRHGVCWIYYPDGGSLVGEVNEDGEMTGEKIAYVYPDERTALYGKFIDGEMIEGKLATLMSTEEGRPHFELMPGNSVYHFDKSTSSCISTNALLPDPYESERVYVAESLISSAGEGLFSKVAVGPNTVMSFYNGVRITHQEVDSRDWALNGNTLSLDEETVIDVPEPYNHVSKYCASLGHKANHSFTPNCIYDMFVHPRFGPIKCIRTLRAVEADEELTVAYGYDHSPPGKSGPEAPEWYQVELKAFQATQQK

[9] = target: Leukocyte tyrosine kinase receptor (Homo sapiens) (UniProt P29376); experiment: Inhibition of recombinant human LTK (450 to end residues) at 10 uM using GEEPLYWSFPAKKK as substrate measured after 40 mins in presence of [gamma33P]ATP by scintillation counting method relative to control
[10] = target: Tyrosine-protein kinase Fer (Homo sapiens) (UniProt P16591); experiment: Inhibition of recombinant human FER (541 to end residues) at 10 uM using KKKSPGEYVNIEFG as substrate measured after 40 mins in presence of [gamma33P]ATP by scintillation counting method relative to control
[11] = target: Serine/threonine-protein kinase pim-2 (Homo sapiens) (UniProt Q9P1W9); experiment: Inhibition of recombinant human PIM2 (2 to end residues) at 10 uM using RSRHSSYPAGT as substrate measured after 40 mins in presence of [gamma33P]ATP by scintillation counting method relative to control
Serine/threonine-protein kinase pim-2 (Homo sapiens), sequence (Q9P1W9 whole entry, looked up): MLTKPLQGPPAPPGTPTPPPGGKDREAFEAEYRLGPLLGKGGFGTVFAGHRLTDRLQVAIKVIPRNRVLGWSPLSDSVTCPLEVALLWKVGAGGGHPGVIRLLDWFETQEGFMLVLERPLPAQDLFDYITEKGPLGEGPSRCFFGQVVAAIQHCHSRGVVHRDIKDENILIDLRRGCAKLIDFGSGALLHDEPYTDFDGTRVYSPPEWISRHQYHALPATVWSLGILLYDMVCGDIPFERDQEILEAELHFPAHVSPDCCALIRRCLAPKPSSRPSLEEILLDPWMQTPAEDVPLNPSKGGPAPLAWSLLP

[12] = target: Fatty acid-binding protein, heart (Homo sapiens) (UniProt P05413); experiment: Binding affinity to FABP3 (unknown origin) at 1:1 ratio by fluorescence based thermal shift assay
Fatty acid-binding protein, heart (Homo sapiens), sequence (P05413 2-133 limits assumed): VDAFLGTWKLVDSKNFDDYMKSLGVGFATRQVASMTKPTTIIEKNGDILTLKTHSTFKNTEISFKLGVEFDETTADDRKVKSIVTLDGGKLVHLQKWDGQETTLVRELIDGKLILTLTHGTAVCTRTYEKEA

[13] = target: Histone acetyltransferase KAT6A (Homo sapiens) (UniProt Q92794); experiment: Inhibition of human MOZ at 10 uM relative to control
[14] = target: Leucine-rich repeat serine/threonine-protein kinase 2 (Homo sapiens) (UniProt Q5S007); experiment: Inhibition of recombinant human LRRK2 (970 to end residues) at 10 uM using RLGRDKYKTLRQIRQ as substrate measured after 40 mins in presence of [gamma33P]ATP by scintillation counting method relative to control
[15] = target: Mitogen-activated protein kinase kinase kinase 7 (Homo sapiens) (UniProt O43318); experiment: Inhibition of recombinant human TAK1 (1 to 303 residues) at 10 uM using casein as substrate measured after 40 mins in presence of [gamma33P]ATP by scintillation counting method relative to control
[16] = target: Casein kinase I isoform delta (Homo sapiens) (UniProt P48730); experiment: Inhibition of recombinant human CK1delta (1 to 294 residues) at 10 uM using KRRRALS(p)VASLPGL as substrate measured after 40 mins in presence of [gamma33P]ATP by scintillation counting method relative to control
Casein kinase I isoform delta (Homo sapiens), sequence (P48730 whole entry, looked up, the tested form may be a part, canonical isoform): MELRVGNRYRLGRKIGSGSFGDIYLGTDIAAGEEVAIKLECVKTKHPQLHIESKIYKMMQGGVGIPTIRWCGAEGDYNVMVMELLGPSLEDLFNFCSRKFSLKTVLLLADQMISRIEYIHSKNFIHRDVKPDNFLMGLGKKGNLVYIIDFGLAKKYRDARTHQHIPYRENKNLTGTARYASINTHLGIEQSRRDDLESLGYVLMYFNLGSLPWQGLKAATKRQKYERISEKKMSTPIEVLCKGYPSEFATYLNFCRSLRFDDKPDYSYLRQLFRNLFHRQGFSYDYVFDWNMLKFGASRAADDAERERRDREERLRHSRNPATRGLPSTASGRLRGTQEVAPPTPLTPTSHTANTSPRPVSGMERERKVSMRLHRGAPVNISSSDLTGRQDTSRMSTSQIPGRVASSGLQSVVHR

[17] = target: Serine/threonine-protein kinase WNK1 (Homo sapiens) (UniProt Q9H4A3); experiment: Inhibition of recombinant human WNK1 (1 to 491 residues) at 10 uM using myelin basic protein as substrate measured after 120 mins in presence of [gamm33P]ATP by scintillation counting method relative to control
[18] = target: Tyrosine-protein kinase ABL1 (Homo sapiens) (UniProt P00519); experiment: Inhibition of human Abl (27 to end residues) at 10 uM using EAIYAAPFAKKK as substrate after 40 mins in presence of [gamma33P]ATP by scintillation counting method relative to control
[19] = target: SRSF protein kinase 1 (Homo sapiens) (UniProt Q96SB4); experiment: Inhibition of recombinant human SRPK1 (2 to end residues) at 10 uM using RSRSRSRSRSRSRSR as substrate measured after 40 mins in presence of [gamma33P]ATP by scintillation counting method relative to control
[20] = target: Ephrin type-A receptor 5 (Homo sapiens) (UniProt P54756); experiment: Inhibition of human EPHA5 (655 to 956 residues) using poly (Glu, Tyr) 4:1 as substrate at 10 uM after 40 mins in presence of [gamma-33P]-ATP by scintillation counting relative to control
Ephrin type-A receptor 5 (Homo sapiens), sequence (P54756 whole entry, the tested form may be a part): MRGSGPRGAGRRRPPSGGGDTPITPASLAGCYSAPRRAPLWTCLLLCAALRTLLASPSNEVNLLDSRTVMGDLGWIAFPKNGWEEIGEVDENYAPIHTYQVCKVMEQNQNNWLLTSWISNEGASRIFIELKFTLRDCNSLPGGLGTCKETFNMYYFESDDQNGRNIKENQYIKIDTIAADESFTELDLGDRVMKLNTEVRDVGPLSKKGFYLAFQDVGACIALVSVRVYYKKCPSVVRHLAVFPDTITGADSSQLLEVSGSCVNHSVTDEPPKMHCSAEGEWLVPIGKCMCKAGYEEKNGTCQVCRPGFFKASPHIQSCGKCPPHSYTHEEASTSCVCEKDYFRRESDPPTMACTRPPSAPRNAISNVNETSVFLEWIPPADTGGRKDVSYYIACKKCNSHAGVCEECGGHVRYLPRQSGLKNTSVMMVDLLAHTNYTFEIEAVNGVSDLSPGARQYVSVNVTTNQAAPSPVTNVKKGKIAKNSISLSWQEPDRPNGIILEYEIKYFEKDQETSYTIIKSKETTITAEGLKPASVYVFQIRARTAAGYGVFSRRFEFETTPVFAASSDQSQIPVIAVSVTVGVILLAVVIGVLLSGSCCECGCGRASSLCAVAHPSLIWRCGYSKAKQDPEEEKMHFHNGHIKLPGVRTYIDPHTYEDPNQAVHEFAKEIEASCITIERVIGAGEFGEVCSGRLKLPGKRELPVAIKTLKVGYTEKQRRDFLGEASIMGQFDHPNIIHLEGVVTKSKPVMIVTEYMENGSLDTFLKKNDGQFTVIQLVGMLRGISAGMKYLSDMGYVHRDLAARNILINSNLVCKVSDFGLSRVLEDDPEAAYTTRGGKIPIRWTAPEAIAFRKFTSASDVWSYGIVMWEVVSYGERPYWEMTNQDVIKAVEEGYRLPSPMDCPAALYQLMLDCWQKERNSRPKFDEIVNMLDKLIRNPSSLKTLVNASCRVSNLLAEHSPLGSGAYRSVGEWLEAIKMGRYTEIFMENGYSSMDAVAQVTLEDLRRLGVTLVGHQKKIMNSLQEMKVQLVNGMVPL

[21] = target: Inhibitor of nuclear factor kappa-B kinase subunit alpha (Homo sapiens) (UniProt O15111); experiment: Inhibition of full length recombinant human IKKalpha at 10 uM after 40 mins in presence of [gamma33P]ATP by scintillation counting method relative to control
[22] = GSH reactivity in PBS assessed as GSH adduct formation at 1 mM after 8 hrs by UPLC-MS analysis; type: physicochemical; settings: buffer, 1000 µM
[23] = target: Catenin beta-1 (Homo sapiens) (UniProt P35222); experiment: Inhibition of beta catenin (unknown origin) expressed in HEK293T cells at 10 to 20 uM by dual-TOPFlash reporter gene assay; type: cell-based
Catenin beta-1 (Homo sapiens), sequence (P35222 whole entry): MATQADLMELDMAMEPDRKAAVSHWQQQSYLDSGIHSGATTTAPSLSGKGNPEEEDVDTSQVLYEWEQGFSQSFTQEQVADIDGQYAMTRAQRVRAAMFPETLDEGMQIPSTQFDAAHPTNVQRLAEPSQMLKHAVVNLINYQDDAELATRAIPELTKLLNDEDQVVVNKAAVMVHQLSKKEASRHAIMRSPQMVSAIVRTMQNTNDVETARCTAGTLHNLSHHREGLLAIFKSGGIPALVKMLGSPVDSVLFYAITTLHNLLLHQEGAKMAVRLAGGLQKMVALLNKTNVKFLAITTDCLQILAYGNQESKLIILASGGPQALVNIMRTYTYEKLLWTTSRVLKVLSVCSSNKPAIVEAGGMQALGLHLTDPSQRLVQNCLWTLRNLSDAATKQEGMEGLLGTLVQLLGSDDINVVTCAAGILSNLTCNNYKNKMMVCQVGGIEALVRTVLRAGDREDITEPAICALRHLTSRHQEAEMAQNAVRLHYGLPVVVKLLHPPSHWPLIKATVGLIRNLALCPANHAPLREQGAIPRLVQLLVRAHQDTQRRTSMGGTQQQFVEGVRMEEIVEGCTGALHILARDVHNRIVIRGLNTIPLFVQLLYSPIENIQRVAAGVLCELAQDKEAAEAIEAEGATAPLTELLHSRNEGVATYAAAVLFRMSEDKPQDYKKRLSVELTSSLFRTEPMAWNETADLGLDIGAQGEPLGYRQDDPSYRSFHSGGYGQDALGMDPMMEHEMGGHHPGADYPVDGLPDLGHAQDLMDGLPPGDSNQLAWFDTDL

[24] = species: Homo sapiens; experiment: Inhibition of full-length recombinant human PKBalpha S478G mutant at 10 uM using GRPRTSSFAEGKK as substrate after 40 mins by in presence of [gamma33P]ATP by scintillation counting method relative to control
[25] = target: Serine/threonine-protein kinase/endoribonuclease IRE1 (Homo sapiens) (UniProt O75460); experiment: Inhibition of recombinant human IRE1 (465 to end residues) at 10 uM using myelin basic protein as substrate measured after 40 mins in presence of [gamma33P]ATP by scintillation counting method relative to control

C=CS(=O)(=O)Nc1ccc(Cc2ccc3ccccc3c2)cc1
inhibition [1]: 10% | inhibition [2]: 5% | inhibition [3]: 1% | inhibition [4]: -5% | inhibition [5]: 13% | Activity [6]: Active | inhibition [7]: 8% | inhibition [8]: 2% | inhibition [9]: 7% | inhibition [10]: 9% | inhibition [11]: 13% | Activity [12]: Active | inhibition [13]: 7% | inhibition [14]: -10% | inhibition [15]: 5% | inhibition [16]: 3% | inhibition [17]: -10% | inhibition [18]: 7% | inhibition [19]: 8% | inhibition [20]: 16% | inhibition [21]: -2% | Activity [22]: Not Active | inhibition [23]: inactive | inhibition [24]: 9% | inhibition [25]: -4%
